{"source": "the NIST ThermoML archive (doi:10.1021/acs.jced.8b00780)", "settings": "Crystal; DTA", "note": "± gives the expanded uncertainty stated by the source."}
{"smiles": "C=C1C[C@@]23CC[C@H]4[C@@](C)(CCC[C@@]4(C)C(=O)O[C@@H]4O[C@H](CO)[C@@H](O)[C@H](O)[C@H]4O)[C@@H]2CC[C@]1(O[C@@H]1O[C@H](CO)[C@@H](O)[C@H](O[C@@H]2O[C@H](CO)[C@@H](O)[C@H](O)[C@H]2O)[C@H]1O[C@@H]1O[C@H](CO)[C@@H](O)[C@H](O)[C@H]1O)C3", "note": "[rebaudioside A]", "values": [{"measurement": "Normal melting temperature", "value": "231.98 ± 1.1", "unit": "°C"}]}
